EC50 and Emax data for 29 compounds are collected here from patent publication US11111251B2, “Positive allosteric modulators of the muscarinic acetylcholine receptor M1” (Vanderbilt University, priority 2016, dated 2021).

Usually pEC50 stands for −log10 of the EC50, conventionally taken in molar units. As usually defined, the Emax is the size of the effect at its maximum, as opposed to the concentration needed.

For the experiment, the target named is T1, human mAChR M1 (Homo sapiens, UniProt P11229).
T1 sequence (P11229 1-460): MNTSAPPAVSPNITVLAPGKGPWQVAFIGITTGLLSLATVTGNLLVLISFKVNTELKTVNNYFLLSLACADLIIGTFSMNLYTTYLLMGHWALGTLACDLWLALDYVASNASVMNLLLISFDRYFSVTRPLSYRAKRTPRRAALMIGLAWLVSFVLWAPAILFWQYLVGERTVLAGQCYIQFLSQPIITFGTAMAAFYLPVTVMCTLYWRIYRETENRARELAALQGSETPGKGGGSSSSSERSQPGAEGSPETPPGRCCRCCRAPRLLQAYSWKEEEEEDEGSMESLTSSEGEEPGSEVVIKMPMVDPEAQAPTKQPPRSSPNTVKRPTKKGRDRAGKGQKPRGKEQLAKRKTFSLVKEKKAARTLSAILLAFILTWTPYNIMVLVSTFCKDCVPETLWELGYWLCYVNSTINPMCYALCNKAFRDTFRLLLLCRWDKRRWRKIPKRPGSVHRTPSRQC
Kind of experiment: mAChR M1 cell-based functional assay: calcium mobilization, positive allosteric modulator mode (increase in EC20 acetylcholine response). Particulars: for Emax: read-out: Human M1 Emax (%). The method in brief:
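Calcium-flux assay in CHO-K1 cells stably expressing human M1, loaded with Fluo-4 AM (50 min, 37 °C) and read at 1 Hz. Compound (11-point, 1:3 series) was added at 4 s, EC20 acetylcholine at 144 s and EC80 at 230 s. PAM activity is the concentration-dependent rise in the EC20 response, fitted with a four-parameter logistic.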
On the technique in general: Calcium flux is commonly read through the fluorescence of an indicator in the cells.

Where [1] appears, read: Table 2, human M1, read-out: Human M1 EC50.
Setting [2] is: Table 1, mAChR M1 cell-based functional assay, PAM mode, species not given, read-out: EC50.

pEC50: −log10 of the molar value. Read-outs that look alike come from different tables or passages of the source. Bounds are passed on as bounds.

Consider `Cn1cc(-c2ccc(Cc3cc(C(=O)NC4CC(F)(F)C4)nc4ccsc34)cn2)cn1` [Compound 345, N-(3,3-difluorocyclobutyl)-7-[[6-(1-methylpyrazol-4-yl)-3-pyridyl]methyl]thieno[3,2-b]pyridine-5-carboxamide], for which the pEC50 under setting [1] is 6.69. Further, the maximal response (Emax) (Table 2, human M1) came to 74.5%.

Turning to `Cn1ccc2nc(C(=O)N[C@H]3CCCC[C@@H]3O)cc(Cc3ccc(-c4cscn4)cc3)c21` [Compound 457, N-[(1S,2S)-2-hydroxycyclohexyl]-1-methyl-7-[(4-thiazol-4-ylphenyl)methyl]pyrrolo[3,2-b]pyridine-5-carboxamide], under setting [1], the pEC50 is 7.46. Moreover, the maximum response (Emax) (Table 2, human M1) came out at 64.8%. On the same counts, the results for `O=C(N[C@@H]1CCOC1)c1cc(Cc2ccc(-c3nccs3)cc2)c2sccc2n1` [Compound 368] are 5.64 and 65.6%. On the same counts, the results for `Cc1nn(C)cc1-c1ccc(Cc2cc(C(=O)NC3COC3)nc3ccsc23)cc1` [Compound 244, 7-[[4-(1,3-dimethylpyrazol-4-yl)phenyl]methyl]-N-(oxetan-3-yl)thieno[3,2-b]pyridine-5-carboxamide] are 6.73 and 15%. `O=C(N[C@H]1CCOC1)c1cc(Cc2ccc(-c3nccs3)cc2)c2sccc2n1` [Compound 369, N-[(3S)-tetrahydrofuran-3-yl]-7-[(4-thiazol-2-ylphenyl)methyl]thieno[3,2-b]pyridine-5-carboxamide]: the pEC50 under setting [1] was 5.64. Besides, the Emax (Table 2, human M1) worked out at 59.5%. On to `Cn1ncc2nc(C(=O)NC[C@H]3CCCO3)cc(Cc3ccc(-c4cscn4)cc3)c21` [Compound 495, 1-methyl-N-[[(2R)-tetrahydrofuran-2-yl]methyl]-7-[(4-thiazol-4-ylphenyl)methyl]-pyrazolo[4,3-b]pyridine-5-carboxamide], for which the pEC50 under setting [1] is 5.41. For the setting “Table 2, human M1”, the Emax was 65.1%. Turning to `O=C1CC(NC(=O)c2cc(Cc3ccc(-n4cccn4)cc3)c3sccc3n2)CN1` (centres unmarked) [Compound 441, N-(5-oxopyrrolidin-3-yl)-7-[(4-pyrazol-1-ylphenyl)methyl]thieno[3,2-b]pyridine-5-carboxamide], the pEC50 under setting [1] is 5.83. The Emax (Table 2, human M1) amounted to 63.7%. On the same counts, the results for `Cc1nn(C)cc1-c1ccc(Cc2cc(C(=O)N[C@H]3CCCC[C@@H]3O)nc3ccsc23)cc1` [Compound 250] are < 5.00 and 48.1%. On the same counts, the results for `Cn1ccc(-c2ccc(Cc3cc(C(=O)N[C@H]4CCCOC4)nc4ccsc34)cn2)n1` [Compound 422, 7-[[6-(1-methylpyrazol-3-yl)-3-pyridyl]methyl]-N-[(3S)-tetrahydropyran-3-yl]thieno[3,2-b]pyridine-5-carboxamide] are 5.79 and 71.6%. On the same counts, the results for `Cn1ccc2nc(C(=O)NC3CCOC(C)(C)C3)cc(Cc3ccc(-c4cscn4)cc3)c21` (centres unmarked) [Compound 461, N-(2,2-dimethyltetrahydropyran-4-yl)-1-methyl-7-[(4-thiazol-4-ylphenyl)methyl]pyrrolo[3,2-b]pyridine-5-carboxamide] are 6.39 and 70.8%. As for `Cc1nc(-c2ccc(Cc3cc(C(=O)NC4CCN(C)CC4)nc4ccsc34)cc2)co1` [Compound 164, 7-[[4-(2-methyloxazol-4-yl)phenyl]methyl]-N-(1-methyl-4-piperidyl)thieno[3,2-b]pyridine-5-carboxamide], under setting [1], the pEC50 is 5.59. Further, the Emax (Table 2, human M1) amounted to 74.6%. On the same counts, the results for `Cn1cc(-c2ccc(Cc3cc(C(=O)N[C@H]4CCCOC4)nc4ccsc34)cn2)cn1` [Compound 347, 7-[[6-(1-methylpyrazol-4-yl)-3-pyridyl]methyl]-N-[(3S)-tetrahydropyran-3-yl]thieno[3,2-b]pyridine-5-carboxamide] are 6.30 and 82.2%. As to `Cn1cc(-c2ccc(Cc3cc(C(=O)N[C@H]4CC[C@@H]4O)nc4ccsc34)cn2)cn1` [Compound 328, N-[(1S,2S)-2-hydroxycyclobutyl]-7-[[6-(1-methylpyrazol-4-yl)-3-pyridyl]methyl]thieno[3,2-b]pyridine-5-carboxamide], the pEC50 under setting [1] was 6.71. In addition, the Emax (Table 2, human M1) is 80.5%. On the same counts, the results for `O=C(NC1CCOCC1)c1cc(C(F)c2ccc(-c3cscn3)cc2)c2sccc2n1` (centres unmarked) [Compound 332, 7-[fluoro-(4-thiazol-4-ylphenyl)methyl]-N-tetrahydropyran-4-yl-thieno[3,2-b]pyridine-5-carboxamide] are 7.24 and 69%. On the same counts, the results for `Cn1cc(-c2ccc(Cc3cc(C(=O)NCC4CCN4)nc4ccsc34)cn2)cn1` (centres unmarked) [Compound 360, N-(azetidin-2-ylmethyl)-7-[[6-(1-methylpyrazol-4-yl)-3-pyridyl]methyl]thieno[3,2-b]pyridine-5-carboxamide] are 7.41 and 88.1%. For `COCC(C)NC(=O)c1cc(Cc2ccc(-c3cnn(C)c3)nc2)c2sccc2n1` (centres unmarked) [Compound 363, N-(2-methoxy-1-methyl-ethyl)-7-[[6-(1-methylpyrazol-4-yl)-3-pyridyl]methyl]thieno[3,2-b]pyridine-5-carboxamide], under setting [1], the pEC50 is 6.49. In addition, under “Table 2, human M1”, the Emax came out at 85.2%.

`CO[C@H]1CCCC[C@@H]1NC(=O)c1cc(Cc2ccc(C)nc2)c2sccc2n1` [Compound 48, N-[(1S,2S)-2-methoxycyclohexyl]-7-[(6-methyl-3-pyridyl)methyl]thieno[3,2-b]pyridine-5-carboxamide]: the pEC50 under setting [2] was 5.24.

In the case of `CC1CC(NC(=O)c2cc(Cc3ccc(-c4cncs4)cc3)c3sccc3n2)CC(C)O1` (centres unmarked) [Compound 391, N-(2,6-dimethyltetrahydropyran-4-yl)-7-[(4-thiazol-5-ylphenyl)methyl]thieno[3,2-b]pyridine-5-carboxamide], the pEC50 under setting [1] is 5.74. In addition, under “Table 2, human M1”, the maximum response (Emax) worked out at 73.4%.

In the case of `O=C(N[C@H]1CCC[C@@H]1O)c1cc(Cc2ccc(-c3nccs3)cc2)c2sccc2n1` [Compound 314], under setting [1], the pEC50 is 6.69. The Emax (Table 2, human M1) came to 84.1%.

For the compound `Cc1nc(-c2ccc(Cc3cc(C(=O)NC4CCCN(C)C4)nc4ccsc34)cc2)co1` (centres unmarked) [Compound 163, 7-[[4-(2-methyloxazol-4-yl)phenyl]methyl]-N-(1-methyl-3-piperidyl)thieno[3,2-b]pyridine-5-carboxamide], under setting [1], the pEC50 was 5.60. Besides, the Emax (Table 2, human M1) came out at 75.4%. On the same counts, the results for `O=C(NC1CC2(COC2)C1)c1cc(Cc2ccc(-n3cccn3)cc2)c2sccc2n1` [Compound 275, N-(2-oxaspiro[3.3]heptan-6-yl)-7-[(4-pyrazol-1-ylphenyl)methyl]thieno[3,2-b]pyridine-5-carboxamide] are 7.37 and 69.9%. On the same counts, the results for `Cc1ncc(Cc2cc(C(=O)N[C@@H]3COCC[C@H]3O)nc3ccsc23)s1` [Compound 138, N-[(3R,4R)-4-hydroxytetrahydropyran-3-yl]-7-[(2-methylthiazol-5-yl)methyl]thieno[3,2-b]pyridine-5-carboxamide] are < 5.00 and 74.3%. In the case of `Cn1cc(-c2ccc(Oc3cc(C(=O)N[C@H]4CCCCC[C@@H]4O)nc4ccsc34)c(F)c2)cn1` [Compound 9], the pEC50 under setting [2] was < 5.00. On to `Cn1ccc2nc(C(=O)NC3CC4(COC4)C3)cc(Cc3ccc(-c4cscn4)cc3)c21` [Compound 452, 1-methyl-N-(2-oxaspiro[3.3]heptan-6-yl)-7-[(4-thiazol-4-ylphenyl)methyl]pyrrolo[3,2-b]pyridine-5-carboxamide], for which the pEC50 under setting [1] was 6.47. Also, under “Table 2, human M1”, the Emax worked out at 71.9%.

Regarding `Cn1cc(-c2ccc(Cc3cc(C(=O)N[C@H]4CCCC[C@@H]4O)nc4ccsc34)c(F)c2)cn1` [Compound 51, 7-[[2-fluoro-4-(1-methylpyrazol-4-yl)phenyl]methyl]-N-[(1S,2S)-2-hydroxycyclohexyl]thieno[3,2-b]pyridine-5-carboxamide], the pEC50 under setting [1] is 5.44. Under “Table 2, human M1”, the Emax was 76.9%. On the same counts, the results for `Cn1ccc2nc(C(=O)N[C@@H]3CCCOC3)cc(Cc3ccc(-c4cscn4)cc3)c21` [Compound 463, 1-methyl-N-[(3R)-tetrahydropyran-3-yl]-7-[(4-thiazol-4-ylphenyl)methyl]pyrrolo[3,2-b]pyridine-5-carboxamide] are 6.00 and 71.9%. On the same counts, the results for `Cn1ccc2nc(C(=O)N[C@@H]3CCOC3)cc(Cc3ccc(-c4cscn4)cc3)c21` [Compound 465, 1-methyl-N-[(3R)-tetrahydrofuran-3-yl]-7-[(4-thiazol-4-ylphenyl)methyl]pyrrolo[3,2-b]pyridine-5-carboxamide] are 5.73 and 72%.

On to `CN1CCCC(NC(=O)c2cc(Cc3ccc(-n4cccn4)cc3)c3sccc3n2)C1` (centres unmarked) [Compound 442, N-(1-methyl-3-piperidyl)-7-[(4-pyrazol-1-ylphenyl)methyl]thieno[3,2-b]pyridine-5-carboxamide], for which the pEC50 under setting [1] is 5.83. Also, for the setting “Table 2, human M1”, the Emax worked out at 71.8%. On the same counts, the results for `O=C(NC1CCCOC1)c1cc(Cc2ccc(-c3nccs3)cc2)c2sccc2n1` (centres unmarked) [Compound 366, N-tetrahydropyran-3-yl-7-[(4-thiazol-2-ylphenyl)methyl]thieno[3,2-b]pyridine-5-carboxamide] are 5.73 and 83.7%.
